As usually defined, the IC50 is the midpoint of a concentration-inhibition curve.

The test system of the first experiment is AGS cells (KRAS^G12D). The experiment in a line: Detection of cell proliferation in vitro by MTT/MTS method (cell activity experiment). The format is cell-based. The conditions noted are these: AGS cells; MTT/MTS; 3 days of drug treatment; read-out: AGS IC50. Put shortly: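 KRAS G12D AGS cells seeded at 1000 per well, compound added 24 h later, 0.5% final DMSO. Viability read after 3 days of treatment by MTT (solubilised in DMSO) or MTS, 4 h, absorbance 490 nm. IC50 from dose–response curves versus DMSO control.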
For orientation: Formazan colour is commonly taken as a measure of viable cells.
As for `C#Cc1c(F)ccc2cc(O)cc(-c3ccc4c(N5C[C@H]6CC[C@@H](C5)[C@@H]6S(C)(=O)=O)nc(OC[C@@]56CCCN5C[C@H](F)C6)nc4c3F)c12` [Example 131, 5-ethynyl-6-fluoro-4-(8-fluoro-2-(((2R,7aS)-2-fluorotetrahydro-1H-pyrrolizin-7a(5H)-yl)methoxy)-4-((1R,5S, 8R)-8-(methylsulfonyl)-3-azabicyclo[3.2.1]octan-3-yl)quinazolin-7-yl)naphthalen-2-ol], the IC50 is above 2500 nM.

Still in this experiment, the particulars now being: Homo sapiens, AGS, 72 h, AGS cells; MTT/MTS; 3 days of drug treatment; read-out: AGS IC50.
On to `Oc1cc2c(c(-c3ncc4c(N5C[C@H]6CC[C@@H](C5)N6)nc(OC[C@@]56CCCN5C[C@H](F)C6)nc4c3F)c1)C1(CC2)CC1` [Example 255, 7′-(4-((1R,5S)-3,8-diazabicyclo[3.2.1]octan-3-yl)-8-fluoro-2-(((2R,7aS)-2-fluorotetrahydro-1H-pyrrolizin-7a(5H)-yl)methoxy)pyrido[4,3-d]pyrimidin-7-yl)-2′,3′-dihydrospiro[cyclopropane-1,1′-inden]-5′-ol], for which the IC50 amounted to 157 nM. In the case of `CC1CCCc2cc(O)cc(-c3c4c(c5c(N6C[C@H]7CC[C@@H](C6)N7)nc(OC[C@@]67CCCN6C[C@H](F)C7)nc5c3F)CCC4)c21` (stereo partly drawn) [Example 382, 4-(1-((1R,5S)-3,8-diazabicyclo[3.2.1]octan-3-yl)-5-fluoro-3-(((2R,7aS)-2-fluorotetrahydro-1H-pyrrolizin-7a(5H)-yl)methoxy)-8,9-dihydro-7H-cyclopenta[f]quinazolin-6-yl)-5-methyl-5,6,7,8-tetrahydronaphthalen-2-ol], the IC50 came out at 45 nM.

Turning to `C#Cc1cccc2cc(O)cc(-c3ncc4c(N5CC6CCCC(C5)N6)nc(OC[C@@]56CCCN5C[C@H](F)C6)nc4c3F)c12` [Example 44, 4-(4-(3,9-diazabicyclo [3.3.1]nonan-3-yl)-8-fluoro-2-(((2R,7aS)-2-fluorotetrahydro-1H-pyrrolizin-7a(5H)-yl)methoxy)pyrido[4,3-d]pyrimidin-7-yl)-5-ethynylnaphthalen-2-ol], the IC50 worked out at 47 nM. As for `C#Cc1c(F)ccc2cc(O)cc(-c3ncc4c(N5C[C@H]6CC[C@@H](C5)N6)nc(OCC56CCN(C)C5COC6)nc4c3F)c12` (stereo partly drawn) [Example 75, 4-(4-((1R,5S)-3,8-diazabicyclo[3.2.1]octan-3-yl)-8-fluoro-2-((1-methyltetrahydro-1H-furo[3,4-b]pyrrol-3a(4H)-yl)methoxy)pyrido[4,3-d]pyrimidin-7-yl)-5-ethynyl-6-fluoronaphthalen-2-ol], the 50% inhibitory concentration (IC50) was above 2500 nM.

As for `CC1CCCc2cc(O)cc(-c3ncc4c(NCC5(N(C)C)CCC5)nc(OC[C@@]56CCCN5C[C@H](F)C6)nc4c3F)c21` (stereo partly drawn) [Example 421, 4-(4-(((1-(dimethylamino)cyclobutyl)methyl)amino)-8-fluoro-2-(((2R,7aS)-2-fluorotetrahydro-1H-pyrrolizin-7a(5H)-yl)methoxy)pyrido[4,3-d]pyrimidin-7-yl)-5-methyl-5,6,7,8-tetrahydronaphthalen-2-ol], the IC50 was 26 nM. In the case of `C#Cc1c(F)ccc2cc(O)cc(-c3ncc4c(N5CC6CCC(C5)[S+]6[O-])nc(OC[C@@]56CCCN5C[C@H](F)C6)nc4c3F)c12` (stereo partly drawn) [Example 22, (1R,5S,8R)-3-(7-(8-ethynyl-7-fluoro-3-hydroxynaphthalen-1-yl)-8-fluoro-2-(((2R,7aS)-2-fluorotetrahydro-1H-pyrrolizin-7a(5H)-yl)methoxy)pyrido [4,3-d]pyrimidin-4-yl)-8-thia-3-azabicyclo [3.2.1]octane 8-oxide], the 50% inhibitory concentration (IC50) stood at 3950 nM. With `Oc1cc(-c2ncc3c(C4C[C@H]5CC[C@@H](C4)N5)nc(OC[C@@]45CCCN4C[C@H](F)C5)nc3c2F)c2c(F)c(F)ccc2c1` (stereo partly drawn) [Example 78, 4-(4-((1R,5S)-8-azabicyclo[3.2.1]octan-3-yl)-8-fluoro-2-(((2R,7aS)-2-fluorotetrahydro-1H-pyrrolizin-7a(5H)-yl)methoxy)pyrido[4,3-d]pyrimidin-7-yl)-5,6-difluoronaphthalen-2-ol], the IC50 was above 2500 nM. On to `C#Cc1cc2c(N3C[C@H]4CC[C@@H](C3)N4)nc(OC[C@@]34CCCN3C[C@H](F)C4)nc2c(F)c1-c1cc(O)cc2ccccc12` [Example 369, 4-(4-((1R,5S)-3,8-diazabicyclo[3.2.1]octan-3-yl)-6-ethynyl-8-fluoro-2-(((2R,7aS)-2-fluorotetrahydro-1H-pyrrolizin-7a(5H)-yl)methoxy)quinazolin-7-yl)naphthalen-2-ol], for which the IC50 came to 180 nM.

For the compound `N#Cc1c(OC[C@@]23CCCN2C[C@H](F)C3)nc2c(F)c(-c3cc(O)cc4cccc(F)c34)ccc2c1N1C[C@H]2CC[C@@H](C1)N2` [Example 180, 4-((1R,5S)-3,8-diazabicyclo[3.2.1]octan-3-yl)-8-fluoro-7-(8-fluoro-3-hydroxynaphthalen-1-yl)-2-(((2R,7aS)-2-fluorotetrahydro-1H-pyrrolizin-7a(5H)-yl)methoxy)quinoline-3-carbonitrile], the IC50 was found to be 556 nM.

Regarding `C#Cc1c(F)ccc2cc(O)cc(-c3ncc4c(N5CCC(NS(C)(=O)=O)C5)nc(OC[C@@]56CCCN5C[C@H](F)C6)nc4c3F)c12` (stereo partly drawn) [Example 59, N-(1-(7-(8-ethynyl-7-fluoro-3-hydroxynaphthalen-1-yl)-8-fluoro-2-(((2R, 7aS)-2-fluorotetrahydro-1H-pyrrolizin-7a(5H)-yl)methoxy)pyrido[4,3-d]pyrimidin-4-yl)pyrrolidin-3-yl) methanesulfonamide], the IC50 is above 2500 nM. As to `Oc1cc2c(c(-c3ncc4c(N5C[C@H]6CC[C@@H](C5)N6)nc(OC[C@@]56CCCN5C[C@H](F)C6)nc4c3F)c1)C(C1CC1)CC2` (stereo partly drawn) [Example 267, 7-(4-((1R,5S)-3,8-diazabicyclo[3.2.1]octan-3-yl)-8-fluoro-2-(((2R,7aS)-2-fluorotetrahydro-1H-pyrrolizin-7a(5H)-yl)methoxy)pyrido[4,3-d]pyrimidin-7-yl)-1-cyclopropyl-2,3-dihydro-1H-inden-5-ol], the IC50 amounted to 1050 nM.

With `C#Cc1cccc2cc(O)cc(-c3ncc4c(N5C[C@H]6CC[C@@H](C5)S6)nc(OC[C@@]56CCCN5C[C@H](F)C6)nc4c3F)c12` [Example 20, 4-(4-((1R,5S)-8-thia-3-azabicyclo [3.2.1]octan-3-yl)-8-fluoro-2-(((2R, 7aS)-2-fluorotetrahydro-1H-pyrrolizin-7a(5H)-yl)methoxy)pyrido [4,3-d]pyrimidin-7-yl)-5-ethynylnaphthalen-2-ol], the IC50 is 271 nM. Still for that read-out and setting: the same measure for `C#Cc1nccc2cc(O)cc(-c3ncc4c(N5C[C@H]6CC[C@@H](C5)N6)nc(OC[C@@]56CCCN5C[C@H](F)C6)nc4c3F)c12` [Example 339, 8-(4-((1R,5S)-3,8-diazabicyclo[3.2.1]octan-3-yl)-8-fluoro-2-(((2R,7aS)-2-fluorotetrahydro-1H-pyrrolizin-7a(5H)-yl)methoxy)pyrido[4,3-d]pyrimidin-7-yl)-1-ethynylisoquinolin-6-ol]: 15 nM; for `Oc1cc2c(c(-c3ccc4c(N5C[C@H]6CC[C@@H](C5)N6)nc(OC[C@@]56CCCN5C[C@H](F)C6)nc4c3F)c1)C1CC1C2` (stereo partly drawn) [Example 156, 2-(4-((1R,5S)-3,8-diazabicyclo[3.2.1]octan-3-yl)-8-fluoro-2-(((2R,7aS)-2-fluorotetrahydro-1H-pyrrolizin-7a(5H)-yl)methoxy)quinazolin-7-yl)-1,1a,6,6a-tetrahydrocyclopropa [a]inden-4-ol]: 40 nM; for `Oc1cc2c(c(-c3ncc4c(N5C[C@H]6CC[C@@H](C5)N6)nc(OC[C@@]56CCCN5C[C@H](F)C6)nc4c3F)c1)C(C(F)(F)F)CCC2` (stereo partly drawn) [Example 260, 4-(4-((1R,5S)-3,8-diazabicyclo[3.2.1]octan-3-yl)-8-fluoro-2-(((2R,7aS)-2-fluorotetrahydro-1H-pyrrolizin-7a(5H)-yl)methoxy)pyrido[4,3-d]pyrimidin-7-yl)-5-(trifluoromethyl)-5,6,7,8-tetrahydronaphthalen-2-ol]: 417 nM. On the same count and under the same terms, next, `C#Cc1cc2c(N3C[C@H]4CC[C@@H](C3)N4)nc(OC[C@@]34CCCN3C[C@H](F)C4)nc2c(F)c1-c1cc(O)cc2c1C(CC)CC2` (stereo partly drawn) [Example 371, 7-(4-((1R,5S)-3,8-diazabicyclo[3.2.1]octan-3-yl)-6-ethynyl-8-fluoro-2-(((2R,7aS)-2-fluorotetrahydro-1H-pyrrolizin-7a(5H)-yl)methoxy)quinazolin-7-yl)-1-ethyl-2,3-dihydro-1H-inden-5-ol]: 85 nM; `Oc1cc(-c2c(Cl)cc3c(N4C[C@H]5CC[C@@H](C4)N5)nc(OC[C@@]45CCCN4C[C@H](F)C5)nc3c2OC2CC2)c2ccccc2c1` [Example 329, 4-(4-((1R,5S)-3,8-diazabicyclo[3.2.1]octan-3-yl)-6-chloro-8-cyclopropoxy-2-(((2R,7aS)-2-fluorotetrahydro-1H-pyrrolizin-7a(5H)-yl)methoxy)quinazolin-7-yl)naphthalen-2-ol]: 260 nM; `CC1CCCc2cc(O)cc(-c3c(F)c4nc(OC[C@@]56CCCN5C[C@H](F)C6)nc(N5C[C@H]6CC[C@@H](C5)N6)c4c4nccn34)c21` (stereo partly drawn) [Example 414, 4-(10-((1R,5S)-3,8-diazabicyclo[3.2.1]octan-3-yl)-6-fluoro-8-(((2R,7aS)-2-fluorotetrahydro-1H-pyrrolizin-7a(5H)-yl)methoxy)imidazo[1′,2′:1,2]pyrido[4,3-d]pyrimidin-5-yl)-5-methyl-5,6,7,8-tetrahydronaphthalen-2-ol]: 45 nM.

With `C#Cc1cccc2cc(O)cc(-c3ccc4c(N5C[C@H]6CC[C@@H](C5)N6)c(C(F)(F)F)c(OC[C@@]56CCCN5C[C@H](F)C6)nc4c3)c12` [Example 184, 4-(4-((1R,5S)-3,8-diazabicyclo[3.2.1]octan-3-yl)-2-(((2R,7aS)-2-fluorotetrahydro-1H-pyrrolizin-7a(5H)-yl)methoxy)-3-(trifluoromethyl)quinolin-7-yl)-5-ethynylnaphthalen-2-ol], the IC50 was above 2500 nM.

The values above are taken from patent US20240300980A1, “HETEROCYCLIC COMPOUNDS AS KRAS INHIBITOR, AND PREPARATION THEREFOR AND USE THEREOF IN TREATMENT” (SHANGHAI KECHOW PHARMA, INC., priority 2021, published 2024).
